In patent US5422351A, “Bis-benzo or benzopyrido cyclohepta piperidene, piperidylidene and piperazine compounds, compositions and methods of use” (Schering Corporation, priority 1992, dated 1995):
Like-named read-outs stand apart in the source and are kept apart here.

Tests used:
PAF = test: PAF-induced bronchospasm in guinea pigs; parameters: species or system guinea pig (male Hartley); conditions: Cavia porcellus, read-out: PAF Agonist Bronchospasm (in Vivo) % Inhibition
Histamine = test: Histamine-induced bronchospasm in guinea pigs; assay type: in vivo, guinea pig (male Hartley); conditions: oral, histamine 10 ug/kg i.v.
Description: Male Hartley guinea pigs (450-550 g) were obtained from Charles River Breeding Laboratories. The animals were fasted overnight and the following day were anesthetized with 0.9 ml/kg i.p. of dialurethane (containing 0.1 g/ml diallylbarbituric acid, 0.4 g/ml ethylurea and 0.4 g/ml urethane). The left jugular vein was cannulated for the administration of compounds. The trachea was cannulated and the animals were ventilated by a rodent respirator at 55 strokes/min. with a stroke volume of 4 ml. A side arm to the tracheal cannula was connected to a pressure transducer to obtain a continuous measure of inflation pressure. Bronchoconstriction was measured as the percent increase in inflation pressure that peaked within 5 min. after challenge with spasmogen. […] Each animal was challenged with only a single spasmogen. The effect of a compound on the bronchospasm is expressed as a percent inhibition of the increase in inflation pressure compared to the increase in a control group.

[1] = tested on: PAF-induced platelet aggregation (human platelet-rich plasma); test: PAF-induced platelet aggregation (in vitro); assay type: cell-based; conditions: PAF 1-5×10^-8 M, read-out: PAF Antagonism (in vitro) IC50
Description: Platelet-activating factor (PAF) causes aggregation of platelets by a receptor-mediated mechanism. Therefore, PAF-induced platelet aggregation provides a simple and convenient assay to screen compounds for PAF antagonism.
Blood was centrifuged at 110× g for 15 min. and the supernatant platelet-rich plasma (PRP) carefully transferred into a polypropylene tube. Platelet-poor-plasma (PPP) was prepared by centrifuging PRP at 12,000× g for 2 min. (Beckman Microfuge B). PRP was used within 3 hr. of drawing the blood.
PAF was dissolved in chloroform:methanol (1:1, v/v) at a concentration of 2 mg/ml and stored at -70° C. An aliquot of this solution was transferred to a polypropylene tube and dried under a flow of nitrogen gas. […] This stock solution was further diluted to appropriate concentrations in Hepes-saline-BSA buffer. Collagen (Sigma) and adenosine diphosphate (ADP) (Sigma) were purchased as solutions. Test compounds were initially dissolved in dimethyl sulfoxide (DMSO) at a concentration of 50 mM and then further diluted in Hepes-saline-BSA buffer to achieve appropriate concentrations.
When an aggregating agent such as PAF is added to PRP, platelets aggregate. An aggregometer quantifies this aggregation by measuring and comparing light (infra-red) transmission through PPP and PRP. Aggregation assays were performed using a dual-channel aggregometer (Model 440, Chrono-Log Corp., Havertown, Pa.). PRP (0.45 ml) in aggregometer cuvettes was continually stirred (37° C.). […] Incubations were continued until the increase in light transmission reached a maximum (usually 2 min.). This increase in light transmission reflecting platlet aggregation is transmitted to a computer by the Chrono-Log model 810 AGGRO/LINK interface. The AGGRO/LINK calculates the slope of transmission change, thus providing the rate of aggregation. Values for inhibition were calculated by comparing rates of aggregation obtained in the absence and the presence of the compound. For each experiment, a standard PAF antagonist such as 8-chloro-6,11-dihydro-11-(1-acetyl-4-piperidylidene)-5H-benzo[5,6]cyclohepta[1,2-b]pyridine was used as a positive control.
Compounds that inhibit PAF-induced aggregation were tested against several other aggregating agents including collagen (0.2 mg/ml) and ADP (2 μM).

Row | IC50 [1] | Compound | inhibition in vivo at 3 mg/kg (PAF; oral, PAF 0.4 μg/kg i.v.) | Histamine Agonist Bronchospasm (in Vivo) % Inhibition (Histamine; 1 mg/kg) | other results
1 | 0.71 µM | [O-][n+]1ccc(CN2CCN(C3c4ccc(Cl)cc4CCc4cccnc43)CC2)cc1 (racemic) [Compound 7] | 81% | – | Histamine Agonist Bronchospasm (in Vivo) % Inhibition (Histamine; 3 mg/kg): 100%
2 | 1.7 µM | [O-][n+]1ccc(CN2CCN(C3c4ccc(Cl)cc4OCc4cccnc43)CC2)cc1 (racemic) [Compound 9] | 22% | – | –
3 | – | CCOC(=O)N1CCC(=C2c3ccc(Cl)cc3CCc3cccnc32)CC1 [Compound 1, reference compound] | – | > 50% | inhibition in vivo at 10 mg/kg (PAF; po): < 50%
4 | 0.61 µM | CC(=O)N1CCC(=C2c3ccc(Cl)cc3CCc3cccnc32)CC1 [Compound 2, reference compound] | – | – | inhibition in vivo at 5 mg/kg (PAF; oral, PAF 0.4 μg/kg i.v.): 59%; Histamine Agonist Bronchospasm (in Vivo) % Inhibition (Histamine; 3 mg/kg): 49%
5 | 7.3 µM | Clc1ccc2c(c1)CCc1cccnc1C2=C1CCN(Cc2ccncc2)CC1 [Compound 3] | 32% | – | –
6 | 4.1 µM | [O-][n+]1ccc(CN2CCC(=C3c4ccc(Cl)cc4CCc4cccnc43)CC2)cc1 [Compound 4] | 35% | 96% | –
7 | 7.4 µM | [O-][n+]1ccc(CN2CCC(=C3c4ccccc4C=Cc4ccccc43)CC2)cc1 [Compound 5] | – | – | inhibition in vivo at 10 mg/kg (PAF; oral, 10 mg/kg, PAF 0.4 μg/kg i.v.): 15%
8 | 3.4 µM | [O-][n+]1ccc(CN2CCC(=C3c4ccccc4CCc4ccccc43)CC2)cc1 [Compound 6] | 0% | – | –
9 | 1 µM | [O-][n+]1ccc(CN2CCC(=C3c4ccc(Cl)cc4SCc4cccnc43)CC2)cc1 [Compound 8] | – | 83% | inhibition in vivo at 5 mg/kg (PAF; oral, PAF 0.4 μg/kg i.v.): 67%
10 | 8.1 µM | [O-][n+]1ccc(CN2CCC(=C3c4ccccc4Oc4cccnc43)CC2)cc1 [Compound 10] | – | – | –
